Assay results from patent publication US10548979B2, “Light-activated compositions and methods using the same” (THE REGENTS OF THE UNIVERSITY OF COLORADO, A BODY CORPORATE, priority 2015, dated 2020).

Columns and labels:
MDR E. coli = test: Antibiotic IC50 measurement (Resazurin) in clinical isolates; format: cell-based, Escherichia coli; settings: 24 h growth
Experimental: Overnight cultures of clinical isolates were diluted to a 0.5 McFarland standard in CAMHB with respective test concentration of antibiotic. Cultures were grown for 24 h at 37° C. with 225 rpm shaking. After 24 h of growth, Resazurin sodium salt (Sigma Aldrich) solution was added and the reaction was monitored for fluorescence measuring every 5 min for 4 h at 37° C. with 225 rpm shaking using 485/610 nm filters. The slope of Resazurin fluorescence was used a quantitative measure of cell metabolism. The IC50 was determined as the concentration of antibiotic which caused a 50% reduction in slope compared to the same biological replicate in no treatment.

MDR S. typhimurium = test: as above; format: cell-based, Salmonella typhimurium; settings: 24 h growth
Experimental: Overnight cultures of clinical isolates were diluted to a 0.5 McFarland standard in CAMHB with respective test concentration of antibiotic. […] The slope of Resazurin fluorescence was used a quantitative measure of cell metabolism.

ESBL K. pneumoniae = test: Combinatorial experiments CdTe-2.4 with antibiotic, growth (optical density); format: cell-based, Klebsiella pneumoniae; settings: breakpoint amount of streptomycin, without CdTe-2.4
Experimental: Five antibiotic concentrations were selected for each strain, so that the levels tested would be below the IC50, near the CLSI or defined breakpoint, and near the IC50. Concentrations of CdTe-2.4 were held constant for all strains at 12.5 nM, 25 nM, and 50 nM. Using these metrics, three biological replicates were tested from each strain with 15 test conditions as well as monotherapy controls and a no treatment condition. Clinical strains were diluted 1:100 from overnight into test condition and grown at 37° C. with 225 rpm. Optical density was measured every 30 min for the first 3 h and every hour subsequently until 8 h. After 8 h of growth, Resazurin sodium salt solution was added and the reaction was monitored for fluorescence measuring every 5 min for 4 h at 37° C. with 225 rpm shaking using 485/610 nm filters. The slope of Resazurin fluorescence was used a quantitative measure of cell metabolism.

| Compound | sensitivity to antibiotic (IC50 versus CLSI or breakpoint) (MDR E. coli) | sensitivity to antibiotic (IC50 versus CLSI or breakpoint) (MDR S. typhimurium) | effect of antibiotic alone on growth (ESBL K. pneumoniae) |
| --- | --- | --- | --- |
| O=C(N[C@H](CO)[C@H](O)c1ccc([N+](=O)[O-])cc1)C(Cl)Cl [chloramphenicol] | sensitive | sensitive |  |
| [H]/N=C(/N)N[C@H]1[C@H](O)[C@@H](O)[C@H](O[C@@H]2O[C@@H](C)[C@](O)(C=O)[C@H]2O[C@@H]2O[C@@H](CO)[C@H](O)[C@@H](O)[C@@H]2NC)[C@@H](N/C(N)=N\[H])[C@@H]1O [streptomycin] |  |  | previously ineffective |
